According to US20040005652A1 (priority 2002, published 2004):

What was measured:
[1] = system: Bacillus cereus ATCC 14579; format: cell-based
[2] = system: Bacillus thuringiensis ATCC 10792; format: cell-based
[3] = system: Bacillus anthrasis AMES-RIID and ANR-1; format: cell-based
[4] = system: B. thuringiensis; details: cited from earlier work
[5] = system: B. anthrasis; details: cited from earlier work
[6] = system: B. cereus; details: cited from earlier work

Molecule	Bacillus cereus ATCC 14579 Colonial Morphologies 48 hours [1]	Bacillus thuringiensis ATCC 10792 Colonial Morphologies 48 hours [2]	Bacillus anthrasis AMES-RIID and ANR-1 Colonial Morphologies 48 hours [3]	colony colour, B. thuringiensis [4]	colony colour, B. anthrasis [5]	colony colour, B. cereus [6]
Manganese chloride	turquoise colonies with a narrow rim	turquoise colonies with a narrow rim	cream color colony with a blue dot in the center	–	–	–
O=P(O)(Oc1c[nH]c2ccc(Br)c(Cl)c12)OC1C(O)C(O)C(O)C(O)C1O (stereo not drawn) [5-bromo-4-chloro-3-indoxyl-myo-inositol-1-phosphate]	–	–	–	turquoise colonies	white colonies	turquoise colonies
